According to PubChem BioAssay (NCI):
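The concentration for 50% growth inhibition is given as GI50. TGI is the concentration that stops growth completely.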

Columns and labels:
Experiment in all cases: NCI anticancer screen, dose series, 384-well format
[1] = tested on: SNB-19 CNS
[2] = tested on: CAKI-1 renal
[3] = tested on: A498 renal
[4] = tested on: MDA-MB-468 breast
[5] = tested on: 786-0 renal
[6] = tested on: LOX IMVI melanoma
[7] = tested on: KM12 colon
[8] = tested on: RPMI-8226 leukemia
[9] = tested on: MDA-MB-231 breast
[10] = tested on: OVCAR-4 ovarian
[11] = tested on: SK-OV-3 ovarian
[12] = tested on: SF-268 CNS
[13] = tested on: SK-MEL-5 melanoma
[14] = tested on: UACC-62 melanoma
[15] = tested on: ACHN renal
[16] = tested on: OVCAR-5 ovarian
[17] = tested on: OVCAR-3 ovarian
[18] = tested on: EKVX NSCLC
[19] = tested on: M14 melanoma
[20] = tested on: NCI-H460 NSCLC
[21] = tested on: SN12C renal
[22] = tested on: MCF7 breast
[23] = tested on: DU-145 prostate
[24] = tested on: PC-3 prostate
[25] = tested on: SF-539 CNS
[26] = tested on: RXF 393 renal
[27] = tested on: UACC-257 melanoma
[28] = tested on: K-562 leukemia
[29] = tested on: TK-10 renal
[30] = tested on: UO-31 renal
[31] = tested on: A549 NSCLC
[32] = tested on: HCC-2998 colon
[33] = tested on: NCI-H226 lung
[34] = tested on: IGROV1 ovarian
[35] = tested on: NCI-H322M lung
[36] = tested on: COLO 205 colon
[37] = tested on: T-47D breast
[38] = tested on: HS 578T breast
[39] = tested on: SK-MEL-28 melanoma
[40] = tested on: NCI/ADR-RES ovarian
[41] = tested on: MALME-3M melanoma
[42] = tested on: HOP-92 NSCLC
[43] = tested on: MDA-MB-435 melanoma
[44] = tested on: CCRF-CEM leukemia
[45] = tested on: HCT-15 colon
[46] = tested on: SW-620 colon
[47] = tested on: OVCAR-8 ovarian
[48] = tested on: SNB-75 CNS
[49] = tested on: MOLT-4 leukemia
[50] = tested on: HOP-62 NSCLC
[51] = tested on: SR leukemia
[52] = tested on: BT-549 breast
[53] = tested on: NCI-H23 lung
[54] = tested on: SF-295 CNS
[55] = tested on: NCI-H522 lung
[56] = tested on: HL-60(TB) leukemia
[57] = tested on: HT29 colon

Cc1cccc(N(C)C(=O)[C@@H]2[C@H](O)CCN2c2nc(C)cc(C(F)(F)F)c2C#N)c1
GI50 [1]: 37.6 µM | TGI [1]: > 100 µM | GI50 [2]: 36.1 µM | TGI [2]: > 100 µM | GI50 [3]: 28.3 µM | TGI [3]: 96.1 µM | GI50 [4]: 20 µM | TGI [4]: 38.5 µM | GI50 [5]: 33.3 µM | TGI [5]: > 100 µM | GI50 [6]: 30.7 µM | TGI [6]: 80.8 µM | GI50 [7]: 33.3 µM | TGI [7]: > 100 µM | GI50 [8]: 13.6 µM | TGI [8]: 26.7 µM | GI50 [9]: 47.9 µM | TGI [9]: > 100 µM | GI50 [10]: 30.4 µM | TGI [10]: 73 µM | GI50 [11]: 35 µM | TGI [11]: 96.4 µM | GI50 [12]: 38.9 µM | TGI [12]: > 100 µM | GI50 [13]: 20.7 µM | TGI [13]: 37.3 µM | GI50 [14]: 38.1 µM | TGI [14]: > 100 µM | GI50 [15]: 31 µM | TGI [15]: > 100 µM | GI50 [16]: 35.2 µM | TGI [16]: > 100 µM | GI50 [17]: 20.1 µM | TGI [17]: 43.5 µM | GI50 [18]: 24.4 µM | TGI [18]: 58.1 µM | GI50 [19]: 43.7 µM | TGI [19]: > 100 µM | GI50 [20]: 30.2 µM | TGI [20]: 87 µM | GI50 [21]: 30.6 µM | TGI [21]: > 100 µM | GI50 [22]: 27.9 µM | TGI [22]: 71.6 µM | GI50 [23]: 31.3 µM | TGI [23]: 90.7 µM | GI50 [24]: 24.5 µM | TGI [24]: 65.3 µM | GI50 [25]: 37.2 µM | TGI [25]: > 100 µM | GI50 [26]: 21.5 µM | TGI [26]: 58.6 µM | GI50 [27]: 35.3 µM | TGI [27]: 76.6 µM | GI50 [28]: 33.1 µM | TGI [28]: > 100 µM | GI50 [29]: 51.4 µM | TGI [29]: > 100 µM | GI50 [30]: 32.5 µM | TGI [30]: > 100 µM | GI50 [31]: 26.9 µM | TGI [31]: > 100 µM | GI50 [32]: 24.8 µM | TGI [32]: 54.4 µM | GI50 [33]: 21 µM | TGI [33]: 64.8 µM | GI50 [34]: 28 µM | TGI [34]: 71.7 µM | GI50 [35]: 36.4 µM | TGI [35]: > 100 µM | GI50 [36]: 37.9 µM | TGI [36]: > 100 µM | GI50 [37]: 37 µM | TGI [37]: > 100 µM | GI50 [38]: 21 µM | TGI [38]: 52.3 µM | GI50 [39]: 43.3 µM | TGI [39]: > 100 µM | GI50 [40]: 23.5 µM | TGI [40]: 63.8 µM | GI50 [41]: 22 µM | TGI [41]: 66.7 µM | GI50 [42]: 22.9 µM | TGI [42]: 61 µM | GI50 [43]: 37.5 µM | TGI [43]: > 100 µM | GI50 [44]: 19.4 µM | TGI [44]: 36 µM | GI50 [45]: 32 µM | TGI [45]: > 100 µM | GI50 [46]: 53.3 µM | TGI [46]: > 100 µM | GI50 [47]: 32.9 µM | TGI [47]: > 100 µM | GI50 [48]: 28.4 µM | TGI [48]: 91.2 µM | GI50 [49]: 14.8 µM | TGI [49]: 28.2 µM | GI50 [50]: 27.2 µM | TGI [50]: 91.7 µM | GI50 [51]: 15.9 µM | TGI [51]: 30 µM | GI50 [52]: 29.4 µM | TGI [52]: 65.4 µM | GI50 [53]: 34.4 µM | TGI [53]: > 100 µM | GI50 [54]: 21.4 µM | TGI [54]: 52 µM | GI50 [55]: 28.1 µM | TGI [55]: 70 µM | GI50 [56]: 19.4 µM | TGI [56]: 33.8 µM | GI50 [57]: 32.7 µM | TGI [57]: > 100 µM
